Active and inactive are the calls of the source. The rule behind the calls is not given here.
Test system: CCRIS mutagenicity, Ames/micronucleus/aberration tests
Assay: CCRIS mutagenicity studies

## COc1cc2c(c3oc(=O)c4c(c13)CCC4=O)[C@@H]1C=CO[C@@H]1O2
End Point: IN VITRO MICRONUCLEUS, Test System: AHH-1 CELLS, Metabolic Activation: NONE
  mutagenic call: active; positive
End Point: IN VITRO MICRONUCLEUS, Test System: MCL-5 CELLS, Metabolic Activation: NONE
  mutagenic call: active; positive
Test System: AMES SALMONELLA TYPHIMURIUM, Strain/Indicator: TA98, Metabolic Activation: EPITHELIAL CELL-MEDIATED, AROCLOR 1254, Method: PREINCUBATION
  mutagenic call: active; positive
Test System: AMES SALMONELLA TYPHIMURIUM, Strain/Indicator: TA98, Metabolic Activation: EPITHELIAL CELL-MEDIATED, NADPH, Method: PREINCUBATION
  mutagenic call: active; positive
Test System: AMES SALMONELLA TYPHIMURIUM, Strain/Indicator: TA98, Metabolic Activation: EPITHELIAL CELL-MEDIATED, Method: PREINCUBATION
  mutagenic call: active; positive
Test System: AMES SALMONELLA TYPHIMURIUM, Strain/Indicator: TA98, Metabolic Activation: HAMSTER, LIVER, S-9, Method: MICROSUSPENSION
  mutagenic call: active; positive
Test System: AMES SALMONELLA TYPHIMURIUM, Strain/Indicator: TA98, Metabolic Activation: HAMSTER, LUNG, S-9, Method: MICROSUSPENSION
  mutagenic call: inactive; negative
Test System: AMES SALMONELLA TYPHIMURIUM, Strain/Indicator: TA98, Metabolic Activation: HAMSTER, TRACHEA, S-9, Method: MICROSUSPENSION
  mutagenic call: active; positive
Test System: AMES SALMONELLA TYPHIMURIUM, Strain/Indicator: TA98, Metabolic Activation: HUMAN LIVER, S-9, Method: STANDARD PLATE
  mutagenic call: active; positive
Test System: AMES SALMONELLA TYPHIMURIUM, Strain/Indicator: TA98, Metabolic Activation: HUMAN, LIVER, S-9, Method: STANDARD PLATE
  mutagenic call: active; positive
Test System: AMES SALMONELLA TYPHIMURIUM, Strain/Indicator: TA98, Metabolic Activation: KUPFFER CELL-MEDIATED, AROCLOR 1254, Method: PREINCUBATION
  mutagenic call: active; positive
Test System: AMES SALMONELLA TYPHIMURIUM, Strain/Indicator: TA98, Metabolic Activation: KUPFFER CELL-MEDIATED, NADPH, Method: PREINCUBATION
  mutagenic call: active; positive
Test System: AMES SALMONELLA TYPHIMURIUM, Strain/Indicator: TA98, Metabolic Activation: KUPFFER CELL-MEDIATED, Method: PREINCUBATION
  mutagenic call: active; positive
Test System: AMES SALMONELLA TYPHIMURIUM, Strain/Indicator: TA98, Metabolic Activation: NONE, Method: MICROSUSPENSION
  mutagenic call: active; positive
Test System: AMES SALMONELLA TYPHIMURIUM, Strain/Indicator: TA98, Metabolic Activation: NONE, Method: PREINCUBATION
  mutagenic call: inactive; negative
Test System: AMES SALMONELLA TYPHIMURIUM, Strain/Indicator: TA98, Metabolic Activation: NONE, Method: STANDARD PLATE
  mutagenic call: active; positive
Test System: AMES SALMONELLA TYPHIMURIUM, Strain/Indicator: TA98, Metabolic Activation: PARENCHYMAL CELL-MEDIATED, AROCLOR 1254, Method: PREINCUBATION
  mutagenic call: active; positive
Test System: AMES SALMONELLA TYPHIMURIUM, Strain/Indicator: TA98, Metabolic Activation: PARENCHYMAL CELL-MEDIATED, NADPH, Method: PREINCUBATION
  mutagenic call: active; positive
Test System: AMES SALMONELLA TYPHIMURIUM, Strain/Indicator: TA98, Metabolic Activation: PARENCHYMAL CELL-MEDIATED, Method: PREINCUBATION
  mutagenic call: inactive; negative
Test System: AMES SALMONELLA TYPHIMURIUM, Strain/Indicator: TA98, Metabolic Activation: RABBIT, LIVER, S-9, Method: MICROSUSPENSION
  mutagenic call: active; positive
Test System: AMES SALMONELLA TYPHIMURIUM, Strain/Indicator: TA98, Metabolic Activation: RABBIT, LUNG, S-9, Method: MICROSUSPENSION
  mutagenic call: active; positive
Test System: AMES SALMONELLA TYPHIMURIUM, Strain/Indicator: TA98, Metabolic Activation: RABBIT, TRACHEA, S-9, Method: MICROSUSPENSION
  mutagenic call: active; positive
Test System: AMES SALMONELLA TYPHIMURIUM, Strain/Indicator: TA98, Metabolic Activation: RAT LIVER S-9, DELOR 103, Method: STANDARD PLATE
  mutagenic call: active; positive
Test System: AMES SALMONELLA TYPHIMURIUM, Strain/Indicator: TA98, Metabolic Activation: RAT LIVER S-9, DELOREM 103, Method: STANDARD PLATE
  mutagenic call: active; positive
Test System: AMES SALMONELLA TYPHIMURIUM, Strain/Indicator: TA98, Metabolic Activation: RAT, LIVER, MICROSOMES, PHENOBARBITAL, Method: STANDARD PLATE
  mutagenic call: active; positive
Test System: AMES SALMONELLA TYPHIMURIUM, Strain/Indicator: TA98, Metabolic Activation: RAT, LIVER, S-9, ACRYLAMIDE, Method: STANDARD PLATE
  mutagenic call: active; positive
Test System: AMES SALMONELLA TYPHIMURIUM, Strain/Indicator: TA98, Metabolic Activation: RAT, LIVER, S-9, AROCLOR 1254, Method: PREINCUBATION
  mutagenic call: active; positive
Test System: AMES SALMONELLA TYPHIMURIUM, Strain/Indicator: TA98, Metabolic Activation: RAT, LIVER, S-9, AROCLOR 1254, Method: STANDARD PLATE
  mutagenic call: active; positive
Test System: AMES SALMONELLA TYPHIMURIUM, Strain/Indicator: TA98, Metabolic Activation: RAT, LIVER, S-9, PHENOBARBITAL, Method: STANDARD PLATE
  mutagenic call: active; positive
Test System: AMES SALMONELLA TYPHIMURIUM, Strain/Indicator: TA98, Metabolic Activation: RAT, LIVER, S-9, Method: MICROSUSPENSION
  mutagenic call: active; positive
Test System: AMES SALMONELLA TYPHIMURIUM, Strain/Indicator: TA98, Metabolic Activation: RAT, LUNG, S-9, Method: MICROSUSPENSION
  mutagenic call: inactive; negative
Test System: AMES SALMONELLA TYPHIMURIUM, Strain/Indicator: TA98, Metabolic Activation: RAT, TRACHEA, S-9, Method: MICROSUSPENSION
  mutagenic call: inactive; negative
Test System: AMES SALMONELLA TYPHIMURIUM, Strain/Indicator: TA100, Metabolic Activation: HUMAN LIVER, S-9, Method: STANDARD PLATE
  mutagenic call: active; positive
Test System: AMES SALMONELLA TYPHIMURIUM, Strain/Indicator: TA100, Metabolic Activation: HUMAN, LIVER, S-9, Method: STANDARD PLATE
  mutagenic call: active; positive
Test System: AMES SALMONELLA TYPHIMURIUM, Strain/Indicator: TA100, Metabolic Activation: HUMAN, PLACENTAL MICROSOMES, Method: PREINCUBATION
  mutagenic call: active; positive
